These results are taken from patent US20250333745A1, “METHODS AND COMPOSITIONS FOR TREATMENT OF POLYCYSTIC KIDNEY DISEASE” (Regulus Therapeutics Inc., priority 2016, published 2025).

A short description of data set [1]: In vitro metabolic stability in mouse liver lysate. Format: in vitro ADME. The following applies: 24-hour incubation of RG4326. As for the experimental part: Metabolic stability was evaluated by incubating each anti-miR-17 compound in a mouse liver lysate. After 24 hours, the percentage of intact compound remaining is calculated. Compounds that are not stable following a 24-hour incubation are potentially not stable in vivo.
Due to their reduced capacity for serum protein binding, which is a property that drives oligonucleotide distribution in the body, short oligonucleotides are not necessarily expected to have pharmacokinetic properties that make them suitable for use as drugs. RG4326 was incubated in mouse, monkey or human liver homogenate. The identity and concentration of RG4326 and metabolites was determined after a 24-hour incubation. RG4326 and metabolites were extracted using liquid-liquid extraction (LLE) and/or solid-phase extraction (SPE), which were then analyzed for identity and concentration using ion-pairing-reversed-phase high performance liquid chromatography coupled with time-of-flight mass spectrometry (IP—RP-HPLC-TOF).

The subject of data set [2] is IFIT3 expression. The data set is described as follows: Ex vivo liver slice assay. Conditions: rat liver slice; 24-hour incubation; relative to PBS. Format: cell-based. As for the experimental part:
In in vitro assays, the potential for toxicity was assessed using a biochemical fluorescent binding assay (FBA) and a liver or kidney slice assay. The FBA is performed by incubating a fluorescent dye with each compound, and immediately measuring fluorescence. Highly fluorescent compounds have the potential to produce toxicity in vivo. The liver or kidney slice assay is performed by incubating a slice of tissue from a core liver sample isolated from rat. Following a 24-hour incubation, RNA is extracted from the tissue slice, and the expression levels of 18 pro-inflammatory genes are measured. An induction in pro-inflammatory gene expression indicates a potential for pro-inflammatory effects in vivo.
Ex vivo assays were performed with liver or kidney tissue slices. The liver or kidney slice assay is performed by incubating a slice of tissue from a core liver or kidney sample isolated from rat. Following a 24-hour incubation, RNA is extracted from the tissue slice, and the expression levels of 18 pro-inflammatory genes, including IFIT, are measured. A log 2 transformation of the fold change (Log2-FC) relative to PBS treatment was performed. An induction in pro-inflammatory gene expression indicates a potential for pro-inflammatory effects in vivo.

The test system of data set [3] is miR-17. The data set is described as follows: miR-17 luciferase reporter assay in HeLa cells. Format: cell-based. The following applies: for Luciferase Fold Derepression: mean. The method, then: In vitro potency was evaluated using a luciferase reporter assay. A luciferase reporter plasmid for miR-17, with […] in the 3′-UTR of the luciferase gene. Compounds of longer lengths were selected if their maximum inhibition was greater than that of the tool anti-miR-17 compound. As shorter compounds, such as 9-mers, are typically not maximally active in the same assay conditions used for longer compounds, shorter compounds were selected based on maximum inhibition relative to appropriate control compounds. In this way, compounds that are diverse in both length and chemical composition were included in further testing.
One assay employed was the luciferase assay. […] Accordingly, the luciferase assay transfection conditions were optimized for short anti-miR-17 compounds, so that the inhibitory activity of the compounds could be measured.
The luciferase reporter plasmid for miR-17 contained a fully complementary miR-17 binding site in the 3′-UTR of the luciferase gene. HeLa cells were transfected with the microRNA mimic and its cognate luciferase reporter, followed by transfection with anti-miR-17 at doses of […], 3, 10, 30, 100, and 300 nM. At the end of the 24-hour transfection period, luciferase activity was measured. As shown in Table 2-1, RG4047, while not as potent as RG4326, inhibited miR-17 activity in a dose dependent manner. SD indicates standard deviation.
Additional in vitro assays were conducted to further explore the potency of RG4326. A luciferase reporter assay was used to test the ability of RG4326 to inhibit the miR-17 family members miR-17, miR-20a, miR-93, and miR-106b. A luciferase reporter plasmid for each of miR-20a, miR-93, and miR-106b was constructed, with a fully complementary microRNA binding site in the 3′-UTR of the luciferase gene. HeLa cells were transfected with the microRNA mimic and its cognate luciferase reporter, followed by transfection with anti-miR-17 at a dose of 100 nm. […] As RG4326 is 100% complementary to the other miR-17 family members not tested, miR-20b and […], it is expected to inhibit these microRNAs as well.
A general note: A reporter such as luciferase makes a cellular process visible.

For data set [4], the system named is miR-17 targets. The data set is described as follows: De-repression of miR-17 targets in kidney cell types (PD Signature Score). Format: cell-based, mouse. The method, then:
The ability of RG4326 to de-repress miR-17 targets was also evaluated in additional kidney cell types, derived from the kidneys of both normal and PKD mice. Cells were treated with 30 nM of RG4326 or control oligonucleotide RG5124. After a 24-hour transfection period, cells were collected and RNA was extracted. The mRNA levels of 18 genes targeted by miR-17 were measured, and averaged to provide a pharmacodynamic signature score (PD Signature Score), represented as Log2 fold-change (Log2FC) relative to mock-transfection. […] “P<0.05” indicates a p-value of less than 0.05, as calculated by one-way ANOVA. “NS” indicates a change that is not statistically significant.

Data set [5] relates to miR-17 targets. The data set is described as follows: miR-17 PD Signature Score in IMCD3 cells (18 genes targeted by miR-17). Format: cell-based, mouse. The following applies: 24-hour transfection, relative to mock-transfection. As for the experimental part:
To test the ability of RG4326 to inhibit miR-17 regulation of endogenous targets, miR-17 target gene de-repression was assessed in vitro in several kidney cell types from normal and PKD mouse kidneys. Mouse kidney collecting duct cells (IMCD3) were treated with 0.3 nM, 1.2 nM, 4.7 nM, 18.8 nM, 75 nM, and 300 nM of RG4326 or a control oligonucleotide, RG5124. Additional control groups included untreated cells and mock-transfected cells (cell treated with transfection reagent only). After a 24-hour transfection period, cells were collected and RNA was extracted. The mRNA levels of 18 genes targeted by miR-17 were measured, and averaged to provide a pharmacodynamic signature score (PD Signature Score), represented as Log2 fold-change (Log2FC) relative to mock-transfection.

Setting [6] is: 0.001 nM anti-miR-17, 24-hour transfection.
[7] abbreviates: 3 nM anti-miR-17, 24-hour transfection.
Setting [8] is: 10 nM anti-miR-17, 24-hour transfection.
Setting [9] is: 30 nM anti-miR-17, 24-hour transfection.
[10] abbreviates: 100 nM anti-miR-17, 24-hour transfection.
The mark [11] stands for this setting: 300 nM anti-miR-17, 24-hour transfection.
[12] abbreviates: DBA-PKD, Collecting Ducts, PKD kidney.
Setting [13] is: DBA-WT, Collecting Ducts, Normal kidney.
Where [14] appears, read: IMCD3, Collecting Ducts, Normal kidney.
Where [15] appears, read: LTL-PKD, Proximal Tubules, PKD kidney.
The mark [16] stands for this setting: LTL-WT, Proximal Tubules, Normal kidney.
[17] abbreviates: M1, Collecting Ducts, Normal kidney.
Where [18] appears, read: MDCT, Distal Tubules, Normal kidney.

In the case of `COC1C(OP(=O)(S)OC[C@H]2O[C@@H](n3cnc4c(N)ncnc43)C(F)C2OP(=O)(S)OC[C@H]2O[C@@H](n3ccc(N)nc3=O)C(F)C2OP(=O)(S)OC[C@H]2O[C@@H](n3ccc(=O)[nH]c3=O)C(F)C2OP(=O)(S)OC[C@H]2O[C@@H](n3ccc(=O)[nH]c3=O)C(OC)C2OP(=O)(S)OC[C@]23O[C@@H](n4ccc(=O)[nH]c4=O)C(O[C@H]2C)C3OP(=O)(S)OC[C@]23O[C@@H](n4cnc5c(=O)[nH]c(N)nc54)C(O[C@H]2C)C3O)[C@@H](COP(=O)(S)OC2C3O[C@@H](C)[C@]2(COP(=O)(S)OC2C4O[C@@H](C)[C@]2(CO)O[C@H]4n2cnc4c(N)ncnc42)O[C@H]3n2cnc3c(=O)[nH]c(N)nc32)O[C@H]1n1ccc(N)nc1=O` (stereo in doubt) [RG4326, ASGSCMAFCFUFUMUSGS], in data set [1], the “Ex Vivo Liver Lysate (% Analyte), Mouse” value was determined as 99.1%. Besides, the “Ex Vivo Liver Slices Assay IFIT3 expression (Log2-FC)” value in data set [2] turned out to be 1.11 ± 0.32 Log2-FC. The “Luciferase Fold Derepression” value in data set [3] (setting [6]) amounted to 1; in data set [3] (setting [7]), 5.3; in data set [3] (setting [8]), 10.4; in data set [3] (setting [9]), 14.1; in data set [3] (setting [10]), 13.9; in data set [3] (setting [11]), 11.7. Further, the “Mean luciferase fold derepression, miR-17” value in data set [3] (anti-miR-17 at 100 nm) is 13.1. Besides, the “PD-Signature Score (Log2FC @ 30 nM)” value is on record as 0.52 ± 0.06; p < 0.05 Log2FC in data set [4] (setting [12]); 0.40 ± 0.09; p < 0.05 Log2FC in data set [4] (setting [13]); 0.57 ± 0.06; p < 0.05 Log2FC in data set [4] (setting [14]); 0.39 ± 0.01; p < 0.05 Log2FC in data set [4] (setting [15]); 0.35 ± 0.02; p < 0.05 Log2FC in data set [4] (setting [16]); 0.18 ± 0.18; p < 0.05 Log2FC in data set [4] (setting [17]). In addition, the “PD-Signature Score (Log2FC @ 30 nM)” value in data set [4] (setting [18]) is listed as 0.10 ± 0.01; p < 0.05 Log2FC. The “miR-17 PD Signature Score, Mean Log2FC” value in data set [5] (0.3 nM) is recorded as −0.075 Log2FC; in data set [5] (1.2 nM), −0.067 Log2FC; in data set [5] (4.7 nM), 0.027 Log2FC; in data set [5] (18.8 nM), 0.272 Log2FC; in data set [5] (75 nM), 0.369 Log2FC; in data set [5] (300 nM) it was 0.373 Log2FC.

In the case of “ASCSAMAFUFGFCMASCS [RG5124, reference compound]”, the “Luciferase Fold Derepression” value stood at 1 in data set [3] (setting [6]); 1.2 in data set [3] (setting [7]); 2.6 in data set [3] (setting [8]); 1 in data set [3] (setting [9]); 0.7 in data set [3] (setting [10]); 1 in data set [3] (setting [11]). Also, the “PD-Signature Score (Log2FC @ 30 nM)” value is given as −0.07 ± 0.02; ns Log2FC in data set [4] (setting [12]); 0.10 ± 0.05; ns Log2FC in data set [4] (setting [13]); −0.03 ± 0.05; ns Log2FC in data set [4] (setting [14]); −0.03 ± 0.04; ns Log2FC in data set [4] (setting [15]); −0.04 ± 0.02; ns Log2FC in data set [4] (setting [16]); −0.08 ± 0.02; ns Log2FC in data set [4] (setting [17]). In addition, in data set [4] (setting [18]), the “PD-Signature Score (Log2FC @ 30 nM)” value is 0.03 ± 0.01; ns Log2FC. The “miR-17 PD Signature Score, Mean Log2FC” value in data set [5] (0.3 nM) is recorded as −0.083 Log2FC; in data set [5] (1.2 nM) it was −0.103 Log2FC; in data set [5] (4.7 nM), −0.097 Log2FC; in data set [5] (18.8 nM), −0.108 Log2FC; in data set [5] (75 nM), −0.124 Log2FC; in data set [5] (300 nM), −0.065 Log2FC.
